How the values were obtained:
5HT2A sensor [1] = format: cell-based
5HT2A sensor [2] = format: cell-based; remark: listed apart in the source
rat cortical neurons = assay: Neurite Outgrowth Assay (Procedure B); format: cell-based; parameters: key: A: Statistically significant mean increase as a percent of DMSO control at 10 μM or less; B: No statistically significant mean increase as a percent of DMSO control at 10 μM or less; conditions: primary rat neuronal cultures, 72h, vs DMSO control, 10 μM or less
Description: Neurite Outgrowth Assay (Procedure B). Pregnant Wistar rats (Janvier; France) were used for the study. They were delivered 6 days before their use. Upon arrival at Neurofit animal facility, they were housed one per cage and maintained in a room with controlled temperature (21-22° C.) and a reversed light-dark cycle (12h/12h; lights on: 17:30-05:30; lights off: 05:30-17:30) with food and water available ad libitum.
Female Wistar rats of 17 days gestation were killed by cervical dislocation and the fetuses were removed from the uterus. Their brains were placed in ice-cold medium of Leibovitz (L15, Gibco, Fisher bioblock, France). Cortices were dissected and meninges were carefully removed. The cortical neurons were dissociated by trypsinization for 30 min at 37° C. (trypsin-EDTA, Gibco) in presence of 0.1 mg/ml DNAse I (Roche, France). The reaction was stopped by addition of Dulbecco's Modified Eagle Medium (DMEM; Gibco) with 10% of fetal bovine serum (FBS; Gibco). The suspension was triturated with a 10-ml pipette and using a needle syringe 21G and centrifuged at 350×g for 10 min at room temperature. The pellet of dissociated cells was resuspended in a medium consisting of Neurobasal (Gibco) supplemented with 2% B27 supplement (Gibco), 0.5 mM L-Glutamine (Gibco), an antibiotic-antimicotic mixture. Viable cells were counted in a Neubauer cytometer using the trypan blue exclusion test (Sigma). Cells were seeded at a density of 10000 cells per well in 96-well plate (Costar) precoated with poly-L-lysine. Test compound at different concentrations were added to the cultures. Donepezil (positive control) was tested at 250 nM.
After 72h (3 days) of plating, cultures were fixed with paraformaldehyde in PBS (4%, Sigma) for 30 min at 4° C. Then, cells were successively permeabilized with 0.1% Triton X100 for 30 min, saturated with PBS containing 3% of BSA and were incubated 1 h with anti-beta III tubulin antibody (Sigma) at 1/10 000 in PBS containing 0.5% of BSA. Cells were washed three times with PBS containing 0.5% of BSA, and they were incubated 1 h with goat anti-mouse antibody coupled with AF488 (Invitrogen A11001) diluted at 1/1000 in PBS containing 0.5% of BSA. Finally, nuclei were staining with DAPI 1 mg/ml at 1/1000 in PBS containing 0.5% of BSA. After rinsing with PBS, the plate was filmed and neurite networks were examined and analyzed using High-Content Screening (Celllnsight, Thermo Scientific). The average number of neurites per neuron and the average total length of neurites per neuron were the main parameters analyzed. Analysis of data was performed using analysis of variance (ANOVA). The Fisher's Protected Least Significant Difference test was used for multiple comparisons. A p value≤0.05 was considered significant. The software used is StatView 5.0 from SAS Institut.

C57BL/6J Mice = assay: Head twitch response (HTR) experiments; format: in vivo, mouse
Description: Head twitch response (HTR) experiments. All HTR experiments were performed by Transpharmation Ltd, London, UK. C57BL/6J Mice (9-10 weeks old) were obtained and housed following an IACUC approved protocol. The mice were habituated in the test cage for at least 30 min, injected intraperitoneally with compound (injection volume 5 ml/kg), returned to the empty test cage, and filmed for 20 minutes. Each video is scored for the number of head-twitches by a trained observer blinded to treatment condition.

5-HT2A [3] = molecular target: T1, 5-HT2A (Homo sapiens, UniProt P28223); assay: Serotonin 5-HT2A in vitro cellular IPOne agonism assay; format: cell-based; parameters: host or cells: CHO-K1; conditions: CHO-K1 cells, IPOne HTRF, 60 min
T1 sequence (P28223 whole entry): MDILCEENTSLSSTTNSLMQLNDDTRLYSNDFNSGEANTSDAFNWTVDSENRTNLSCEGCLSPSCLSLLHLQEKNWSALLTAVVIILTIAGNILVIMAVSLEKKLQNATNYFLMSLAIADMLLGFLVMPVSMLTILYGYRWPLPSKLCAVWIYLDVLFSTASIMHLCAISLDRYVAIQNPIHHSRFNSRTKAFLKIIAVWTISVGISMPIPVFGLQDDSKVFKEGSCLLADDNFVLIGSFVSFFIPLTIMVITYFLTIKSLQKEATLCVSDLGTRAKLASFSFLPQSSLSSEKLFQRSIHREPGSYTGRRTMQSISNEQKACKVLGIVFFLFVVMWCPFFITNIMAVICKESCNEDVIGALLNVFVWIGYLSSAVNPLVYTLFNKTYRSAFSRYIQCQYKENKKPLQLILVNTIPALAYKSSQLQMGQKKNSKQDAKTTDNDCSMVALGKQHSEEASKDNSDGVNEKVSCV
Description: Serotonin 5-HT2A In Vitro Cellular IPOne Agonism Assay. The 5-HT2A IPOne HTRF assay was performed at Epics Therapeutics S.A. (Belgium, FAST-0505I) using conventional methods. Briefly, CHO-K1 cells expressing human recombinant 5-HT2A receptor grown to mid-log phase in culture media without antibiotics were detached with PBS-EDTA, centrifuged, and resuspended in medium without antibiotics buffer. 20,000 cells are distributed in a 96 well plate and incubated overnight at 37° C. with 5% CO2.
For agonist testing, the medium is removed and 20 μl of assay buffer plus 20 μl of test compound or reference agonist are added in each well. The plate is incubated for 60 min. at 37° C. with 5% CO2.
After addition of the lysis buffer containing IP1-d2 and anti-IP1 cryptate detection reagents, plates are incubated 1-hour at room temperature, and fluorescence ratios are measured according to the manufacturer specification, with the HTRF kit.

5-HT2A [4] = molecular target: T1, 5-HT2A; assay: Serotonin 5-HT2A in vitro radioligand binding competition assay; parameters: purchased Epics Therapeutics S.A. (Belgium) FAST-0505B; host or cells: membrane extracts; conditions: radiotracer [3H]-DOI, membrane extracts
Description: Serotonin 5-HT2A In Vitro Radioligand Binding Competition Assay. The 5-HT2A radioligand binding competition assay was performed at Epics Therapeutics S.A. (Belgium, FAST-0505B) using conventional methods. Briefly, competition binding is performed in duplicate in the wells of a 96 well plate (Master Block, Greiner, 786201) containing binding buffer (optimized for each receptor), membrane extracts (amount of protein/well optimized for each receptor), radiotracer [^3H]-DOI (final concentration optimized for each receptor) and test compound. Nonspecific binding is determined by co-incubation with 200-fold excess of cold competitor. The samples are incubated in a final volume of 0.1 ml at a temperature and for a duration optimized for each receptor and then filtered over filter plates. Filters are washed six times with 0.5 ml of ice-cold washing buffer (optimized for each receptor) and 50 μl of Microscint 20 (Packard) are added in each well. The plates are incubated 15 min on an orbital shaker and then counted with a TopCount™ for 1 min/well.

In the case of CCN(CC)C(=O)[C@@H]1C=C2c3cccc4[nH]c(Br)c(c34)C[C@H]2N(C)C1 [BOL148], the “activation of the 5HT2A sensor assay” value (5HT2A sensor [1]) is reported as “do not activate the 5HT2A sensor assay in agonist mode” and the “competition with 5-HT in the 5HT2A sensor assay” value (shortened to “competition with 5-HT”) (5HT2A sensor [2]) is reported as “compete with 5HT binding to 5HT2A”.
With CN(C)CCc1c[nH]c2ccccc12 [DMT, N,N-dimethyltryptamine] the “activation of the 5HT2A sensor assay” value (5HT2A sensor [1]) was “activate the 5HT2A sensor assay in agonist mode”.
In the case of COc1cc(CC(C)N)c(OC)cc1I (stereo not drawn) [DOI], the “activation of the 5HT2A sensor assay” value (5HT2A sensor [1]) is reported as “activate the 5HT2A sensor assay in agonist mode”.
With COc1ccc2c3c([nH]c2n1)CCN(C)CC3 [Example 1, 2-methoxy-7-methyl-5,6,7,8,9,10-hexahydropyrido[3′,2′:4,5]pyrrolo[2,3-d]azepine] the “Increase in Neurite Length” value (rat cortical neurons) was “A”, the “Increase in Neurite Number” value (rat cortical neurons) was “A” and the “Number of head twitches” value (C57BL/6J Mice; intraperitoneal, 10 mg/kg, filmed for 20 minutes) was “A (10 head twitches or less at 10 mg/kg)”. The EC50 (5-HT2A [3]) was 101 to 1000 nM and the IC50 (5-HT2A [4]) was 1 to 10 µM.
In the case of COc1ccc2[nH]cc(CCN(C)C)c2c1 [Example 5-MeO-DMT], the “head-twitch response (HTR)” value (C57BL/6J Mice) is reported as “produces a robust, dose-dependent head-twitch response” and the “activation of the 5HT2A sensor assay” value (5HT2A sensor [1]) is reported as “activate the 5HT2A sensor assay in agonist mode”.
With CCN(CC)CCc1c[nH]c2cc(F)ccc12 [Example 6-F-DET] the “activation of the 5HT2A sensor assay” value (5HT2A sensor [1]) was “do not activate the 5HT2A sensor assay in agonist mode” and the “competition with 5-HT” value (5HT2A sensor [2]) was “compete with 5HT binding to 5HT2A”.
In the case of COc1ccc2c(CCN(C)C)c[nH]c2c1 [Example 6-MeO-DMT], the “head-twitch response (HTR)” value (C57BL/6J Mice) is reported as “does not produce a HTR”, the “activation of the 5HT2A sensor assay” value (5HT2A sensor [1]) is reported as “do not activate the 5HT2A sensor assay in agonist mode” and the “competition with 5-HT” value (5HT2A sensor [2]) is reported as “compete off 5-HT”.
With Cc1ccc2c3c([nH]c2n1)CCN(C1COC1)CC3 [Example 9, 2-methyl-7-(oxetan-3-yl)-5,6,7,8,9,10-hexahydropyrido[3′,2′:4,5]pyrrolo[2,3-d]azepine] the “Increase in Neurite Length” value (rat cortical neurons) was “B”, the “Increase in Neurite Number” value (rat cortical neurons) was “B” and the EC50 (5-HT2A [3]) was greater than 10000 nM. The IC50 (5-HT2A [4]) was greater than 10 µM.
With Cc1ccc2c3c(n(C)c2n1)CCN(C1COC1)CC3 [Example 11, 2,10-dimethyl-7-(oxetan-3-yl)-5,6,7,8,9,10-hexahydropyrido[3′,2′:4,5]pyrrolo[2,3-d]azepine] the “Increase in Neurite Length” value (rat cortical neurons) was “B”, the “Increase in Neurite Number” value (rat cortical neurons) was “B” and the EC50 (5-HT2A [3]) was greater than 10000 nM. For the same molecule, the IC50 (5-HT2A [4]) was greater than 10 µM.
With Cc1ccc2c3c(n(C)c2n1)CCN(C)CC3 [Example 12, 2,7,10-trimethyl-5,6,7,8,9,10-hexahydropyrido[3′,2′:4,5]pyrrolo[2,3-d]azepine] the “Increase in Neurite Length” value (rat cortical neurons) was “B”, the “Increase in Neurite Number” value (rat cortical neurons) was “B” and the EC50 (5-HT2A [3]) was 101 to 1000 nM. For the same molecule, the IC50 (5-HT2A [4]) was 1 to 10 µM.
O=C(c1ccc(F)cc1)C1CCN(CCn2c(=O)[nH]c3ccccc3c2=O)CC1 [Ketanserin] was tested, and the “activation of the 5HT2A sensor assay” value (5HT2A sensor [1]) was “do not activate the 5HT2A sensor assay in agonist mode” and the “competition with 5-HT” value (5HT2A sensor [2]) was “compete with 5HT binding to 5HT2A”.
For CNC(C)Cc1ccc2c(c1)OCO2 [L-MDMA], the “activation of the 5HT2A sensor assay” value (5HT2A sensor [1]) was “do not activate the 5HT2A sensor assay in agonist mode”.
For CCN(CC)C(=O)[C@@H]1C=C2c3cccc4[nH]cc(c34)C[C@H]2N(C)C1 [LSD], the “activation of the 5HT2A sensor assay” value (5HT2A sensor [1]) was “activate the 5HT2A sensor assay in agonist mode”.
CN[C@H](C)Cc1ccc2c(c1)OCO2 [R-MDMA] was tested, and the “activation of the 5HT2A sensor assay” value (5HT2A sensor [1]) was “do not activate the 5HT2A sensor assay in agonist mode”.

From US20230227453A1 (priority 2020, published 2023)
